These results are taken from patent US11590139B2, “Substituted aminopurine compounds, compositions thereof, and methods of treatment therewith” (Signal Pharmaceuticals, LLC, priority 2014, dated 2023).

One assay relates to Lox-IMVI melanoma cell line. The assay is described as follows: Lox-IMVI anti-proliferative assay (growth inhibition, Cell Titer-Glo). In kind it is cell-based, human. The note with it: Homo sapiens; IC50 activity level in the cell-based Lox-IMVI anti-proliferative assay; read-out: Activity. In short, it runs like this:
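RPMI/10% FBS; cmpd 0.5 nM–10 μM, 3-fold ×10, duplicate, 0.2% DMSO final; 72 h, 37 °C, 5% CO2. ATP-luminescence readout at t0 and 72 h. IC50 = 50% of DMSO control, 4-parameter logistic fit.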
Background: ATP-based viability assays read luminescence as a measure of living cells.
Regarding `C[C@@H](CO)Nc1ncc2nc(Nc3c(F)cc(F)cc3F)n([C@H]3CC[C@@H](C(N)=O)CC3)c2n1` [Example 164, (1R,4s)-4-(2-((S)-1-hydroxypropan-2-ylamino)-8-(2,4,6-trifluorophenylamino)-9H-purin-9-yl)cyclohexanecarboxamide], the IC50 is > 1 µM.

Consider `NC(=O)[C@H]1CC[C@@H](n2c(Nc3c(Cl)ccc(F)c3F)nc3cnc(NC4CCOCC4)nc32)CC1` [Example 113, (1s,4s)-4-(8-(6-chloro-2,3-difluorophenylamino)-2-(tetrahydro-2H-pyran-4-ylamino)-9H-purin-9-yl)cyclohexanecarboxamide], for which the IC50 was 0.5 to 1 µM.

On to `N#Cc1cc(Cl)c(Nc2nc3cnc(NC4CCC(F)(F)CC4)nc3n2[C@H]2CC[C@@H](C(N)=O)CC2)c(Cl)c1` [Example 397, (1s,4s)-4-(8-(2,6-dichloro-4-cyanophenylamino)-2-(4,4-difluorocyclohexylamino)-9H-purin-9-yl)cyclohexanecarboxamide], for which the IC50 was < 0.25 µM.

For the compound `Cc1ccc(Nc2nc3cnc(NC4CCOCC4)nc3n2[C@H]2CC[C@@H](C(N)=O)CC2)c(F)c1F` [Example 83, (1s,4s)-4-(8-(2,3-difluoro-4-methylphenylamino)-2-(tetrahydro-2H-pyran-4-ylamino)-9H-purin-9-yl)cyclohexanecarboxamide], the IC50 is 0.5 to 1 µM.

As for `Cc1cc(F)c(Nc2nc3cnc(NC4CCOCC4)nc3n2[C@H]2CC[C@@H](C(N)=O)CC2)cc1F` [Example 106, (1s,4s)-4-(8-(2,5-difluoro-4-methylphenylamino)-2-(tetrahydro-2H-pyran-4-ylamino)-9H-purin-9-yl)cyclohexanecarboxamide], the IC50 is > 1 µM.

With `CC[C@H](C)Nc1ncc2nc(Nc3c(F)cccc3Cl)n([C@H]3CC[C@@H](C(N)=O)CC3)c2n1` [Example 337, (1R,4s)-4-(2-(sec-butylamino)-8-(2-chloro-6-fluorophenylamino)-9H-purin-9-yl)cyclohexanecarboxamide], the IC50 is > 1 µM.

With `NC(=O)[C@H]1CC[C@@H](n2c(Nc3c(F)cc(F)cc3Cl)nc3cnc(N[C@@H]4CC[C@@H](O)C4)nc32)CC1` [Example 210, (1S,4s)-4-(8-(2-chloro-4,6-difluorophenylamino)-2-((1R,3R)-3-hydroxycyclopentylamino)-9H-purin-9-yl)cyclohexanecarboxamide], the IC50 was > 1 µM.

Turning to `NC(=O)[C@H]1CC[C@@H](n2c(Nc3c(F)cccc3F)nc3cnc(N[C@@H]4CC[C@@H](O)C4)nc32)CC1` [Example 209, (1S,4s)-4-(8-(2,6-difluorophenylamino)-2-((1R,3R)-3-hydroxycyclopentylamino)-9H-purin-9-yl)cyclohexanecarboxamide], the IC50 is > 1 µM.

Take `NC(=O)[C@H]1CC[C@@H](n2c(Nc3c(Cl)cc(F)cc3Cl)nc3cnc(N[C@H]4CCC[C@@H](O)C4)nc32)CC1` [Example 374, (1R,4s)-4-(8-(2,6-dichloro-4-fluorophenylamino)-2-((1S,3R)-3-hydroxycyclohexylamino)-9H-purin-9-yl)cyclohexanecarboxamide]: the IC50 is > 1 µM.

As to `NC(=O)[C@H]1CC[C@@H](n2c(Nc3c(Cl)cc(Cl)cc3Cl)nc3cnc(N[C@H]4CCNC[C@H]4F)nc32)CC1` [Example 138, (1R,4s)-4-(2-((3R,4S)-3-fluoropiperidin-4-ylamino)-8-(2,4,6-trichlorophenylamino)-9H-purin-9-yl)cyclohexanecarboxamide], the IC50 is > 1 µM.

In the case of `NC(=O)[C@H]1CC[C@@H](n2c(Nc3c(F)cc(Cl)cc3Cl)nc3cnc(NCC4(CO)CC4)nc32)CC1` [Example 206, (1s,4s)-4-(8-(2,4-dichloro-6-fluorophenylamino)-2-((1-(hydroxymethyl)cyclopropyl)methylami-no)-9H-purin-9-yl)cyclohexanecarboxamide], the IC50 is > 1 µM.

Regarding `NC(=O)[C@H]1CC[C@@H](n2c(Nc3ccccc3Cl)nc3cnc(NC4CCCC4)nc32)CC1` [Example 93, (1s,4s)-4-(8-(2-chlorophenylamino)-2-(cyclopentylamino)-9H-purin-9-yl)cyclohexanecarboxamide], the IC50 was > 1 µM.

Turning to `CC(=O)N1CCC(Nc2ncc3nc(Nc4c(F)cc(Cl)cc4Cl)n([C@H]4CC[C@@H](C(N)=O)CC4)c3n2)CC1` [Example 198, (1s,4s)-4-(2-(1-acetylpiperidin-4-ylamino)-8-(2,4-dichloro-6-fluorophenylamino)-9H-purin-9-yl)cyclohexanecarboxamide], the IC50 was > 1 µM.

For `NC(=O)[C@H]1CC[C@@H](n2c(Nc3c(F)cccc3F)nc3cnc(N[C@@H]4CCOC[C@H]4F)nc32)CC1` [Example 275, (1S,4s)-4-(8-(2,6-difluorophenylamino)-2-((3S,4R)-3-fluorotetrahydro-2H-pyran-4-ylamino)-9H-purin-9-yl)cyclohexanecarboxamide], the IC50 fell in the range of 0.25 to 0.5 µM.

Still in this assay, the particulars now being: Homo sapiens; Lox-IMVI anti-proliferative assay, IC50 activity level; read-out: Activity.
`C[C@@H](CO)Nc1ncc2nc(Nc3c(Cl)cc(C(F)(F)F)cc3Cl)n([C@H]3CC[C@@](C)(C(N)=O)CC3)c2n1` [Example 554, (1R,4s)-4-(8-(2,6-dichloro-4-(trifluoromethyl)phenylamino)-2-((S)-1-hydroxypropan-2-ylamino)-9H-purin-9-yl)-1-methylcyclohexanecarboxamide]: the IC50 lay in the range of 0.5 to 1 µM.

On to `C[C@@H](CO)Nc1ncc2nc(Nc3c(Cl)cc(C(F)(F)F)cc3Cl)n([C@H]3CC[C@](C)(C(N)=O)CC3)c2n1` [Example 480, (1S,4r)-4-(8-(2,6-dichloro-4-(trifluoromethyl)phenylamino)-2-((S)-1-hydroxypropan-2-ylamino)-9H-purin-9-yl)-1-methylcyclohexanecarboxamide], for which the IC50 is > 1 µM.

In the case of `C[C@]1(C(N)=O)CC[C@@H](n2c(Nc3c(Cl)cc(C#N)cc3Cl)nc3cnc(NC4CCC(F)(F)CC4)nc32)CC1` [Example 534, (1s,4s)-4-(8-(2,6-dichloro-4-cyanophenylamino)-2-(4,4-difluorocyclohexylamino)-9H-purin-9-yl)-1-methylcyclohexanecarboxamide], the IC50 is < 0.25 µM.

Consider `COC(=O)N1CCCC(Nc2ncc3nc(Nc4c(Cl)cccc4Cl)n([C@H]4CC[C@@H](C(N)=O)CC4)c3n2)C1` (stereo partly drawn) [Example 405, (R)-methyl 3-(9-((1s,4S)-4-carbamoylcyclohexyl)-8-(2,6-dichlorophenylamino)-9H-purin-2-ylamino)piperidine-1-carboxylate], for which the IC50 was > 1 µM.

Still in this assay, the particulars now being: Homo sapiens; Lox-IMVI anti-proliferative assay, cell-based; read-out: Activity (IC50 activity level).
In the case of `C[C@]1(C(N)=O)CC[C@@H](n2c(Nc3c(Cl)cc(Cl)cc3Cl)nc3cnc(N[C@H]4CCOC[C@@H]4F)nc32)CC1` [Example 802, (1R,4s)-4-(2-(((3R,4S)-3-fluorotetrahydro-2H-pyran-4-yl)amino)-8-((2,4,6-trichlorophenyl)amino)-9H-purin-9-yl)-1-methylcyclohexane-1-carboxamide], the IC50 was < 0.25 µM.

The same assay, now with this note: Homo sapiens; Lox-IMVI melanoma cell line, anti-proliferative assay; read-out: Activity (IC50 activity level).
As to `NC(=O)[C@H]1CC[C@@H](n2c(Nc3c(F)cc(F)cc3Cl)nc3cnc(NC[C@@H]4CCCC[C@H]4O)nc32)CC1` [Example 660, (1R,4s)-4-(8-(2-chloro-4,6-difluorophenylamino)-2-(((1S,2R)-2-hydroxycyclohexyl)methylamino)-9H-purin-9-yl)cyclohexanecarboxamide], the IC50 is > 1 µM.

With `C[C@]1(C(N)=O)CC[C@@H](n2c(Nc3c(F)cc(Cl)cc3Cl)nc3cnc(N[C@H]4CC[C@H](O)C4)nc32)CC1` [Example 646, (1R,4s)-4-(8-(2,4-dichloro-6-fluorophenylamino)-2-((1S,3S)-3-hydroxycyclopentylamino)-9H-purin-9-yl)-1-methylcyclohexanecarboxamide], the IC50 lay within 0.25 to 0.5 µM.

For the compound `NC(=O)[C@H]1CC[C@@H](n2c(Nc3c(F)cc(F)cc3Cl)nc3cnc(N[C@@H]4CCOC[C@H]4F)nc32)CC1` [Example 630, (1S,4s)-4-(8-(2-chloro-4,6-difluorophenylamino)-2-((3S,4R)-3-fluorotetrahydro-2H-pyran-4-ylamino)-9H-purin-9-yl)cyclohexanecarboxamide], the IC50 was < 0.25 µM.

For `C[C@]1(C(N)=O)CC[C@@H](n2c(Nc3c(F)cc(Cl)cc3F)nc3cnc(N[C@@H]4CCC[C@@H](O)C4)nc32)CC1` [Example 622, (1S,4s)-4-(8-(4-chloro-2,6-difluorophenylamino)-2-((1R,3R)-3-hydroxycyclohexylamino)-9H-purin-9-yl)-1-methylcyclohexanecarboxamide], the IC50 fell in the range of 0.5 to 1 µM.

Consider `N#Cc1cc(F)c(Nc2nc3cnc(N[C@H]4CCC[C@@H](O)C4)nc3n2[C@H]2CC[C@@H](C(N)=O)CC2)c(Cl)c1` [Example 687, (1R,4s)-4-(8-(2-chloro-4-cyano-6-fluorophenylamino)-2-((1S,3R)-3-hydroxycyclohexylamino)-9H-purin-9-yl)cyclohexanecarboxamide], for which the IC50 is > 1 µM.

As to `CCN1CCC[C@@H](Nc2ncc3nc(Nc4c(F)cc(Cl)cc4Cl)n([C@H]4CC[C@@H](C(N)=O)CC4)c3n2)C1` [Example 734, (1S,4s)-4-(8-(2,4-dichloro-6-fluorophenylamino)-2-((R)-1-ethylpiperidin-3-ylamino)-9H-purin-9-yl)cyclohexanecarboxamide], the IC50 is > 1 µM.

Turning to `C[C@@H]1COCC[C@H]1Nc1ncc2nc(Nc3c(F)cc(F)cc3Cl)n([C@H]3CC[C@@](C)(C(N)=O)CC3)c2n1` [Example 725, (1S,4s)-4-(8-(2-chloro-4,6-difluorophenylamino)-2-((3S,4R)-3-methyltetrahydro-2H-pyran-4-ylamino)-9H-purin-9-yl)-1-methylcyclohexanecarboxamide], the IC50 is < 0.25 µM.

Turning to `C[C@@H]1COCC[C@@H]1Nc1ncc2nc(Nc3c(Cl)cc(C#N)cc3Cl)n([C@H]3CC[C@@](C)(C(N)=O)CC3)c2n1` [Example 763, (1S,4s)-4-(8-(2,6-dichloro-4-cyanophenylamino)-2-((3S,4R)-3-methyltetrahydro-2H-pyran-4-ylamino)-9H-purin-9-yl)-1-methylcyclohexanecarboxamide], the IC50 was < 0.25 µM.
